# From ChEMBL document CHEMBL5252570, “Synthesis and biological evaluation of 2,5-disubstituted furan derivatives containing 1,3-thiazole moiety as potential α-glucosidase inhibitors” (Bioorg Med Chem Lett, 2023)
# Calls of active or inactive are those of the source. The rule behind the calls is not given here.
# How the values were obtained:
# [1] = target: T1, Alpha glucosidase (Homo sapiens, UniProt O43451+P10253+P14410+Q2M2H8); assay: Inhibition of alpha glucosidase (unknown origin); assay type: protein assay
# [2] = target: T1, Alpha glucosidase; assay: Inhibition of alpha glucosidase (unknown origin) at 50 uM relative to control; assay type: protein assay
# [3] = Cytotoxicity against human HepG2 cells assessed as inhibition of cell growth at 100 uM by CCK-8 assay relative to control; assay type: toxicity, cell-based; conditions: read-out: Activity
# [4] = target: T1, Alpha glucosidase; assay: Competitive inhibition of alpha glucosidase (unknown origin) using pNPG as substrate by Lineweaver-Burk plot analysis; assay type: protein assay
# [5] = Cytotoxicity against human HEK293 cells assessed as inhibition of cell growth at 100 uM by CCK-8 assay relative to control; assay type: toxicity, cell-based; conditions: read-out: Activity
# [6] = target: T1, Alpha glucosidase; assay: Non-competitive inhibition of alpha glucosidase (unknown origin) assessed as inhibition constant using pNPG as substrate by Dixon plot analysis; assay type: protein assay
# [7] = Cytotoxicity against mouse RAW264.7 cells assessed as inhibition of cell growth at 100 uM by CCK-8 assay relative to control; assay type: toxicity, cell-based; conditions: read-out: Activity
# [8] = target: T1, Alpha glucosidase; assay: Inhibition of alpha glucosidase (unknown origin) using p-nitrophenyl glucopyranoside as substrate pre incubated for 10 mins followed by substrate addition and measured after 30 mins by plate reader analysis; assay type: protein assay
# [9] = target: T1, Alpha glucosidase; assay: Potency index, […] for inhibition of alpha glucosidase (unknown origin); assay type: protein assay
Structure (SMILES),IC50 [1],inhibition [2],also measured
O=C(Nc1nccs1)c1ccc(-c2ccc([N+](=O)[O-])cc2)o1,4.987 µM,91.5%,
O=C(Nc1nccs1)c1ccc(-c2cccc([N+](=O)[O-])c2)o1,4.12 µM,89.3%,inhibition at 100 µM [3]: 13.7%; inhibition [4]: Active; inhibition at 100 µM [5]: 28.4%; Ki [6]: 367.24 µM; inhibition at 100 µM [7]: 16.4%
O=C(Sc1nncs1)c1ccc(-c2ccc(Cl)cc2)o1,0.186 µM,,
CC(C)(C)c1cc(/C=N/Nc2nc(-c3ccc(Cl)cc3)cs2)cc(C(C)(C)C)c1O,,,IC50 [8]: 18.23 µM
O=C(Nc1nccs1)c1ccc(-c2ccccc2F)o1,19.763 µM,87.6%,
O=C(Nc1nccs1)c1ccc(-c2cccc(F)c2)o1,6.227 µM,88.1%,
Cc1ccc(-c2ccc(C(=O)Nc3nccs3)o2)cc1,26.495 µM,64.6%,
O=C(Nc1nccs1)c1ccc(-c2ccccc2[N+](=O)[O-])o1,26.943 µM,87.7%,
O=C(Nc1nccs1)c1ccc(-c2ccccc2)o1,94.033 µM,27.3%,
N#C/N=c1\sccn1C(=O)c1ccc(-c2cccc(Cl)c2)o1,1.2 µM,,
O=C(Nc1nccs1)c1ccc(-c2c(F)cccc2F)o1,148.2 µM,21.6%,
O=C(Sc1nccs1)c1ccc(-c2ccc([N+](=O)[O-])cc2)o1,8.934 µM,85.7%,
O=C(Nc1nccs1)c1ccc(-c2ccc(F)cc2)o1,20.717 µM,67.4%,
O=C(Nc1nccs1)c1ccc(-c2ccc(Br)cc2)o1,24.125 µM,74%,
O=C(Nc1nccs1)c1ccc(-c2ccccc2Cl)o1,18.33 µM,59.3%,
O=C(Nn1c(-c2cc3ccccc3oc2=O)cs/c1=N\c1ccc(Cl)c(Cl)c1)c1ccccc1O,,,IC50 [8]: 0.12 µM
COc1ccc(-c2ccc(C(=O)Sc3nccs3)o2)cc1,14.945 µM,78.6%,
COc1ccc(-c2ccc(C(=O)Nc3nccs3)o2)cc1,30.94 µM,59%,
O=C(Nc1nccs1)c1ccc(-c2cccc(Cl)c2)o1,5.871 µM,88.4%,
O=C(Nc1nccs1)c1ccc(-c2ccc(Cl)cc2)o1,14.769 µM,69.1%,
O=C(Sc1nccs1)c1ccc(-c2cccc([N+](=O)[O-])c2)o1,,20.2%,
Cc1nnc(SC(=O)c2ccc(-c3cccc(F)c3)o2)s1,0.082 µM,,
C[C@H]1O[C@H](O[C@H]2[C@H](O)[C@@H](O)[C@@H](O[C@H]3[C@H](O)[C@@H](O)C(O)O[C@@H]3CO)O[C@@H]2CO)[C@H](O)[C@@H](O)[C@@H]1N[C@H]1C=C(CO)[C@@H](O)[C@H](O)[C@H]1O (stereo not given in full),,11.5%,inhibition [4]: Active

# Now from value to compound, other results behind:
IC50 [1],inhibition [2],Structure (SMILES),also measured
2.611 µM,94.4%,O=C(Sc1nccs1)c1ccc(-c2cccc(Cl)c2)o1,
0.645 µM,98.5%,O=C(Sc1nccs1)c1ccc(-c2ccccc2[N+](=O)[O-])o1,inhibition at 100 µM [3]: 47.2%; Ratio IC50 [9]: 701; inhibition at 100 µM [5]: 53.4%; Ki [6]: 2.04 µM; inhibition at 100 µM [7]: 38.1%
5.392 µM,87%,O=C(Sc1nccs1)c1ccc(-c2cccc(F)c2)o1,
77.99 µM,34.1%,O=C(Nc1nccs1)c1ccc(-c2ccc(F)cc2F)o1,
8.436 µM,83.6%,O=C(Sc1nccs1)c1ccc(-c2c(F)cccc2F)o1,
11.43 µM,80.4%,Cc1ccc(-c2ccc(C(=O)Sc3nccs3)o2)cc1,
5.283 µM,89.9%,O=C(Sc1nccs1)c1ccc(-c2ccc(Br)cc2)o1,
6.935 µM,86.1%,O=C(Sc1nccs1)c1ccc(-c2ccc(F)cc2F)o1,
5.97 µM,83.6%,O=C(Sc1nccs1)c1ccc(-c2ccccc2F)o1,
1.935 µM,88.2%,O=C(Sc1nccs1)c1ccc(-c2ccccc2Cl)o1,
2.223 µM,100%,O=C(Sc1nccs1)c1ccc(-c2ccccc2)o1,
,43.4%,O=C(Sc1nccs1)c1ccc(-c2ccc(F)cc2)o1,
4.562 µM,84.2%,O=C(Sc1nccs1)c1ccc(-c2ccc(Cl)cc2)o1,
